Data from patent publication US20100022509A1, “Inhibitors of MshC and Homologs Thereof, and Methods of Identifying Same” (priority 2006, published 2010).
Where two headings read alike, the source gives them in different places.

Molecular target: T1, MshC (Mycobacterium tuberculosis, UniProt P9WJM9)
T1 sequence (P9WJM9 1-414): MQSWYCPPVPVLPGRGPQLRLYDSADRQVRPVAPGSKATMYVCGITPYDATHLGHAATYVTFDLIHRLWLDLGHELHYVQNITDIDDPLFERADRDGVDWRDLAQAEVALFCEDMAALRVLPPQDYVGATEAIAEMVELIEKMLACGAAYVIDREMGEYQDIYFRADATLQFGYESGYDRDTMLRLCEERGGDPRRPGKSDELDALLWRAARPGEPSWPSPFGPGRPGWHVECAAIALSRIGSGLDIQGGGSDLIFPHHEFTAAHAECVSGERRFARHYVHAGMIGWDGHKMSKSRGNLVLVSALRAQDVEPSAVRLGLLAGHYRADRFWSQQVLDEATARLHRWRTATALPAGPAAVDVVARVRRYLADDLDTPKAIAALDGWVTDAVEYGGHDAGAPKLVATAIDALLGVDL
Assay: biochemical
Assay type: biochemical, M. tuberculosis

Row | SMILES | IC50 (IC50) [mM] | other results
1 | Nc1ncnc2c1ncn2[C@@H]1O[C@H](COS(=O)(=O)NC(=O)[C@@H](N)CS)[C@@H](O)[C@H]1O [5′-O-[N-(L-cysteinyl)sulfamoyl]adenosine, reference compound] |  | IC50 (assayed under the conditions described in [0186], read-out: IC50 (inhibits MshC)): ~4e-05 mM
2 | CCC1CCCCN1CCCNC(=O)c1ccc2c(c1)N(Cc1ccccc1F)C(=O)c1ccccc1[S+]2[O-] (stereo not drawn) [Inhibitor 83-01] | > 3 | 
3 | O=C(NCCCN1CCC(Cc2ccccc2)CC1)c1ccc2c(c1)N(Cc1ccccc1F)C(=O)c1ccccc1[S+]2[O-] (stereo not drawn) [Inhibitor 83-02] | > 3 | inhibition of MshC in words, compounds lacking the basic amino group or with groups in excess of 10 carbons on the remote amino residue: little or no inhibition
4 | CN(CCCNC(=O)c1ccc2c(c1)N(Cc1ccccc1F)C(=O)c1ccccc1[S+]2[O-])C1CCCCC1 (stereo not drawn) [Inhibitor 83-03] | > 3 | 
5 | O=C(NCCCSC1CCCCC1)c1ccc2c(c1)N(Cc1ccccc1F)C(=O)c1ccccc1[S+]2[O-] (stereo not drawn) [Inhibitor 83-04] | > 3 | 
6 | CCCN(CCC)CCCNC(=O)c1ccc2c(c1)N(Cc1ccc(F)cc1)C(=O)c1ccccc1[S+]2[O-] (stereo not drawn) [Inhibitor 83-05] | > 3 | 
7 | CCN(CC)CCCNC(=O)c1ccc2c(c1)N(Cc1cc(C)ccc1C)C(=O)c1ccccc1[S+]2[O-] (stereo not drawn) [Inhibitor 83-06] | > 3 | 
8 | Cc1ccc(C)c(CN2C(=O)c3ccccc3[S+]([O-])c3ccc(C(=O)NCCCN4CCCCCC4)cc32)c1 (stereo not drawn) [Inhibitor 83-07] | 0.65 ± 0.05 | inhibition of MshC in words, 1,3-diaminopropyl residue with remote amino residue capable of protonation: measurable inhibition; inhibition of MshC in words, Z benzyl moiety with methyl groups in the 2,5 positions or unsubstituted: Weak but detectable inhibition; inhibition of MshC in words, compounds grouped by X (X=S, X=SO, X=SO2): Significant inhibition
9 | Cc1ccc(C)c(CN2C(=O)c3ccccc3[S+]([O-])c3ccc(C(=O)NCCCN(C)C4CCCCC4)cc32)c1 (stereo not drawn) [Inhibitor 83-08] | ~3 | inhibition of MshC in words, compounds grouped by X (X=S, X=SO, X=SO2): Significant inhibition
10 | Cc1ccc(C)c(CN2C(=O)c3ccccc3[S+]([O-])c3ccc(C(=O)NCCCSC4CCCCC4)cc32)c1 (stereo not drawn) [Inhibitor 83-09] | > 3 | 
11 | O=C(NCCCN1CCOCC1)c1ccc2c(c1)N(Cc1ccccc1)C(=O)c1ccccc1[S+]2[O-] (stereo not drawn) [Inhibitor 83-10] | > 3 | 
12 | CN(CCCNC(=O)c1ccc2c(c1)N(Cc1ccccc1)C(=O)c1ccccc1[S+]2[O-])C1CCCCC1 (stereo not drawn) [Inhibitor 83-11] | 0.4 ± 0.1 | inhibition of MshC in words, 1,3-diaminopropyl residue with remote amino residue capable of protonation: measurable inhibition; inhibition of MshC in words, compounds grouped by X (X=S, X=SO, X=SO2): Significant inhibition
13 | O=C(NCCCSC1CCCCC1)c1ccc2c(c1)N(Cc1ccccc1)C(=O)c1ccccc1[S+]2[O-] (stereo not drawn) [Inhibitor 83-12] | > 3 | inhibition of MshC in words, compounds lacking the basic amino group or with groups in excess of 10 carbons on the remote amino residue: little or no inhibition
14 | CCN1C(=O)c2ccccc2[S+]([O-])c2ccc(C(=O)NCCCN3CCOCC3)cc21 (stereo not drawn) [Inhibitor 83-13] | > 3 | 
15 | CCN1C(=O)c2ccccc2[S+]([O-])c2ccc(C(=O)NCCCN3CCN(C)CC3)cc21 (stereo not drawn) [Inhibitor 83-14] | > 3 | 
16 | CCN1C(=O)c2ccccc2[S+]([O-])c2ccc(C(=O)NCCCN3CCCCCC3)cc21 (stereo not drawn) [Inhibitor 83-15] | > 3 | 
17 | CCCN(CCC)CCCNC(=O)c1ccc2c(c1)N(CC)C(=O)c1ccccc1[S+]2[O-] (stereo not drawn) [Inhibitor 83-16] | > 3 | 
18 | CCCCN(CCCC)CCCNC(=O)c1ccc2c(c1)N(CC)C(=O)c1ccccc1[S+]2[O-] (stereo not drawn) [Inhibitor 83-17] | > 3 | 
19 | CCN1C(=O)c2ccccc2[S+]([O-])c2ccc(C(=O)NCCCSC3CCCCC3)cc21 (stereo not drawn) [Inhibitor 83-18] | > 3 | 
20 | CCN1C(=O)c2ccccc2S(=O)(=O)c2ccc(C(=O)NCCCN3CCCCCC3)cc21 [Inhibitor 83-19] | ~3 | 
21 | CCCCN(CC)CCCNC(=O)c1ccc2c(c1)N(CC)C(=O)c1ccccc1S2(=O)=O [Inhibitor 83-20] | > 3 | 
22 | CCC1CCCCN1CCCNC(=O)c1ccc2c(c1)N(Cc1cccc(C)c1)C(=O)c1ccccc1S2(=O)=O (stereo not drawn) [Inhibitor 83-21] | ~2 | 
23 | Cc1cccc(CN2C(=O)c3ccccc3S(=O)(=O)c3ccc(C(=O)NCCCN4CCCC4)cc32)c1 [Inhibitor 83-22] | > 3 | 
24 | Cc1cccc(CN2C(=O)c3ccccc3S(=O)(=O)c3ccc(C(=O)NCCCN4CCCCCC4)cc32)c1 [Inhibitor 83-23] | > 3 | 

Row | SMILES | IC50 (IC50) [mM] | other results
25 | CCCCN(C)CCCNC(=O)c1ccc2c(c1)N(Cc1cccc(C)c1)C(=O)c1ccccc1S2(=O)=O [Inhibitor 83-24] | 1.5 ± 0.5 | 
26 | Cc1cccc(CN2C(=O)c3ccccc3S(=O)(=O)c3ccc(C(=O)NCCCN(C)C4CCCCC4)cc32)c1 [Inhibitor 83-25] | > 3 | 
27 | O=C(NCCCN1CCN(c2cccc(Cl)c2)CC1)c1ccc2c(c1)N(Cc1ccc(Cl)cc1)C(=O)c1ccccc1S2(=O)=O [Inhibitor 83-26] | > 3 | inhibition of MshC in words, compounds lacking the basic amino group or with groups in excess of 10 carbons on the remote amino residue: little or no inhibition
28 | CCC1CCCCN1CCCNC(=O)c1ccc2c(c1)N(Cc1ccc(Cl)cc1)C(=O)c1ccccc1S2(=O)=O (stereo not drawn) [Inhibitor 83-27] | 0.7 ± 0.25 | inhibition of MshC in words, 1,3-diaminopropyl residue with remote amino residue capable of protonation: measurable inhibition; inhibition of MshC in words, Z is a benzyl moiety bearing one or more halogens: Measurable inhibition; inhibition of MshC in words, compounds grouped by X (X=S, X=SO, X=SO2): Significant inhibition
29 | O=C(NCCCN1CCCC1)c1ccc2c(c1)N(Cc1ccc(Cl)cc1)C(=O)c1ccccc1S2(=O)=O [Inhibitor 83-28] | 0.25 ± 0.1 | inhibition of MshC in words, 1,3-diaminopropyl residue with remote amino residue capable of protonation: measurable inhibition; inhibition of MshC in words, Z is a benzyl moiety bearing one or more halogens: Measurable inhibition; inhibition of MshC in words, compounds grouped by X: Significant inhibition
30 | CC1CC(C)CN(CCCNC(=O)c2ccc3c(c2)N(Cc2ccc(Cl)cc2)C(=O)c2ccccc2S3(=O)=O)C1 (stereo not drawn) [Inhibitor 83-29] | > 3 | 
31 | CC1CCCCN1CCNC(=O)c1ccc2c(c1)N(Cc1ccc(Cl)cc1)C(=O)c1ccccc1S2(=O)=O (stereo not drawn) [Inhibitor 83-30] | > 3 | 
32 | O=C(NCCCN1CCN(c2ccc(F)cc2)CC1)c1ccc2c(c1)N(Cc1ccc(Cl)cc1)C(=O)c1ccccc1S2(=O)=O [Inhibitor 83-32] | ~2 | inhibition of MshC in words, compounds lacking the basic amino group or with groups in excess of 10 carbons on the remote amino residue: little or no inhibition
33 | O=C(NCCCN1CCC(Cc2ccccc2)CC1)c1ccc2c(c1)N(Cc1ccc(Cl)cc1)C(=O)c1ccccc1S2(=O)=O [Inhibitor 83-33] | > 3 | inhibition of MshC in words, compounds lacking the basic amino group or with groups in excess of 10 carbons on the remote amino residue: little or no inhibition
34 | CC(C)CN(CCCNC(=O)c1ccc2c(c1)N(Cc1ccc(Cl)cc1)C(=O)c1ccccc1S2(=O)=O)CC(C)C [Inhibitor 83-34] | > 3 | 
35 | CN(CCCNC(=O)c1ccc2c(c1)N(Cc1ccc(Cl)cc1)C(=O)c1ccccc1S2(=O)=O)C1CCCCC1 [Inhibitor 83-35] | 0.35 ± 0.04 | inhibition of MshC in words, compounds grouped by X (X=S, X=SO, X=SO2): Significant inhibition
36 | CN(CCCNC(=O)c1ccc2c(c1)N(Cc1ccc(Cl)cc1)C(=O)c1ccccc1S2(=O)=O)c1ccccc1 [Inhibitor 83-36] | > 3 | 
37 | O=C(NCCN1CCCC1)c1ccc2c(c1)N(Cc1ccccc1F)C(=O)c1ccccc1S2(=O)=O [Inhibitor 83-39] | 0.1 ± 0.02 | inhibition of MshC in words, 1,3-diaminopropyl residue with remote amino residue capable of protonation: measurable inhibition; inhibition of MshC in words, Z is a benzyl moiety bearing one or more halogens: Measurable inhibition; inhibition of MshC in words, compounds grouped by X (X=S, X=SO, X=SO2): Significant inhibition
38 | CC1CCCN(CCCNC(=O)c2ccc3c(c2)N(Cc2ccccc2F)C(=O)c2ccccc2S3(=O)=O)C1 (stereo not drawn) [Inhibitor 83-40] | 0.1 ± 0.03 | inhibition of MshC in words, 1,3-diaminopropyl residue with remote amino residue capable of protonation: measurable inhibition; inhibition of MshC in words, Z is a benzyl moiety bearing one or more halogens: Measurable inhibition; inhibition of MshC in words, compounds grouped by X (X=S, X=SO, X=SO2): Significant inhibition
39 | O=C(NCCN1CCN(Cc2ccccc2)CC1)c1ccc2c(c1)N(Cc1ccccc1F)C(=O)c1ccccc1S2(=O)=O [Inhibitor 83-42] | > 3 | inhibition of MshC in words, compounds lacking the basic amino group or with groups in excess of 10 carbons on the remote amino residue: little or no inhibition
40 | Cc1ccc(C)c(CN2C(=O)c3ccccc3S(=O)(=O)c3ccc(C(=O)NCCCN4CCOCC4)cc32)c1 [Inhibitor 83-43] | > 3 | 
41 | Cc1ccc(C)c(CN2C(=O)c3ccccc3S(=O)(=O)c3ccc(C(=O)NCCCN4CCCCCC4)cc32)c1 [Inhibitor 83-44] | > 0.5 | inhibition of MshC in words, 1,3-diaminopropyl residue with remote amino residue capable of protonation: measurable inhibition
42 | Cc1ccc(C)c(CN2C(=O)c3ccccc3S(=O)(=O)c3ccc(C(=O)NCCN4CCCCC4C)cc32)c1 (stereo not drawn) [Inhibitor 83-45] | > 3 | 
43 | Cc1ccc(C)c(CN2C(=O)c3ccccc3S(=O)(=O)c3ccc(C(=O)NCCCN(C)C4CCCCC4)cc32)c1 [Inhibitor 83-46] | ≥ 0.5 | 
44 | Cc1ccc(C)c(CN2C(=O)c3ccccc3S(=O)(=O)c3ccc(C(=O)NCCCSC4CCCCC4)cc32)c1 [Inhibitor 83-47] | > 3 | inhibition of MshC in words, compounds lacking the basic amino group or with groups in excess of 10 carbons on the remote amino residue: little or no inhibition
45 | CCC1CCCCN1CCCNC(=O)c1ccc2c(c1)N(Cc1ccccc1)C(=O)c1ccccc1S2(=O)=O (stereo not drawn) [Inhibitor 83-48] | ≥ 0.5 | 
46 | CC1CC(C)CN(CCCNC(=O)c2ccc3c(c2)N(Cc2ccccc2)C(=O)c2ccccc2S3(=O)=O)C1 (stereo not drawn) [Inhibitor 83-49] | ~2 | 
47 | CCN1CCN(CCCNC(=O)c2ccc3c(c2)N(Cc2ccccc2)C(=O)c2ccccc2S3(=O)=O)CC1 [Inhibitor 83-50] | > 3 | 
48 | CC1CCCN(CCCNC(=O)c2ccc3c(c2)N(Cc2ccccc2)C(=O)c2ccccc2S3(=O)=O)C1 (stereo not drawn) [Inhibitor 83-51] | 1.7 ± 0.4 | 
